Experimental data published in ChEMBL document CHEMBL2016479, “Lead optimization of 4,4-biaryl piperidine amides as γ-secretase inhibitors” (Bioorg Med Chem Lett, 2012).
≈ marks a conversion by molar mass, not a printed value.

Key:
Gamma-secretase [1] = assay: Inhibition of gamma-secretase in human SH-SY5Y cells co-expressing APP C-terminal fragment SPA4CT assessed as inhibition of amyloid beta 42 production by electrochemiluminescent assay; type: cell-based
[2] = Plasma clearance in Sprague-Dawley rat at 0.05 mg/kg, iv; type: ADME, organism-based; design: dose 0.05 mg/kg, route intravenous
Gamma-secretase [3] = assay: Inhibition of gamma-secretase in human SH-SY5Y cells co-expressing APP C-terminal fragment SPA4CT assessed as inhibition of amyloid beta 40 production by electrochemiluminescent assay; type: cell-based
Mus musculus = assay: Anti-Alzheimer's disease activity in APP-YAC transgenic mouse model assessed as reduction in amyloid beta 42 production at 100 mg/kg, po; type: functional
[4] = Ratio of permeability from apical to basolateral side over basolateral to apical side in […] expressing human MDR1; type: ADME, cell-based
[5] = (§1) AUC in Sprague-Dawley rat at 0.05 mg/kg, iv; type: ADME, organism-based, Plasma; design: dose 0.05 mg/kg, route intravenous; details: Sprague-Dawley, plasma
[6] = Apparent permeability of the compound; type: ADME; details: not told
[7] = Volume of distribution at steady state in Sprague-Dawley rat at 0.05 mg/kg, iv; type: ADME, organism-based; design: dose 0.05 mg/kg, route intravenous; details: in vivo, read-out: Vdss
[8] = Drug uptake in APP-YAC transgenic mouse plasma at 100 mg/kg, po after 6 hrs; type: ADME, organism-based; design: dose 100 mg/kg, route oral
[9] = Solubility of the compound; type: physicochemical
[10] = Lipophilicity, log D of the compound; type: physicochemical; details: octanol/water
[11] = Drug uptake in APP-YAC transgenic mouse brain at 100 mg/kg, po after 6 hrs; type: ADME, organism-based; design: dose 100 mg/kg, route oral; details: read-out: Drug uptake
[12] = Half life in Sprague-Dawley rat at 0.05 mg/kg, iv; type: ADME, organism-based; design: dose 0.05 mg/kg, route intravenous; details: in vivo
Rattus norvegicus = assay: as §1; type: ADME, organism-based, Plasma; design: dose 0.05 mg/kg, route intravenous; details: in vivo

Row | SMILES | IC50 (Gamma-secretase [1]) [nM] | clearance [2] [mL/min/kg] | IC50 (Gamma-secretase [3]) [nM] | also measured
1 | O=C(c1cnc(Cl)nc1C(F)(F)F)N1CCC(c2cc(F)ccc2F)(S(=O)(=O)c2ccc(Cl)cc2)CC1 | > 10000 |  | > 10000 | 
2 | O=C(N1CC[C@](c2cc(F)ccc2F)(S(=O)(=O)c2ccc(Cl)cc2)[C@@H](O)C1)C1(C(F)(F)F)CC1 (racemic) | 190 |  | 250 | 
3 | Cn1ccnc1C(=O)N1CCC(c2cc(F)ccc2F)(S(=O)(=O)c2ccc(Cl)cc2)CC1 | 160 | > 84 | 200 | 
4 | O=C(N1CC[C@](c2cc(F)ccc2F)(S(=O)(=O)c2ccc(Cl)cc2)[C@@H](O)C1)C1(C(F)(F)F)CC1 (single isomer, unassigned; 11c) | 2390 |  | 1790 | 
5 | O=C(c1ccccc1C(F)(F)F)N1CCC(c2cc(F)ccc2F)(S(=O)(=O)c2ccc(Cl)cc2)CC1 | 210 | 31.9 | 260 | 
6 | O=C(CCC(F)(F)F)N1CCC(c2cc(F)ccc2F)(S(=O)(=O)c2ccc(Cl)cc2)CC1 | 420 |  | 400 | 
7 | Cn1cc(C(=O)N2CCC(c3cc(F)ccc3F)(S(=O)(=O)c3ccc(Cl)cc3)CC2)c(C(F)(F)F)n1 | 120 | > 84 | 160 | inhibition in vivo at 100 mg/kg (Mus musculus): 17%; Ratio [4]: 1.8; AUC [5]: 0.23 µM·h; Papp [6]: 30.7 ×10⁻⁶ cm/s; Vd [7]: 11.3 L; concentration at 6 h [8]: 1780 nM; solubility [9]: 30.6 µM (≈ 16.8 µg/mL); logD [10]: 3.36; concentration at 6 h [11]: 520 nM; half-life [12]: 2.05 h
8 | CC1(C(=O)N2CCC(c3cc(F)ccc3F)(S(=O)(=O)c3ccc(Cl)cc3)CC2)COC1 | 640 |  | 880 | 
9 | O=C(c1cnc(Cl)cc1C(F)(F)F)N1CCC(c2cc(F)ccc2F)(S(=O)(=O)c2ccc(Cl)cc2)CC1 | 970 |  | 1090 | 
10 | Cn1nc(C(F)(F)F)c(C(=O)N2CCC(c3cc(F)ccc3F)(S(=O)(=O)c3ccc(Cl)cc3)CC2)c1Cl | 190 | 79 | 230 | 
11 | O=C(N1CCC(c2cc(F)ccc2F)(S(=O)(=O)c2ccc(Cl)cc2)CC1)C1(C(F)(F)F)CCCCC1 | 180 |  | 220 | 

Now from value to compound, other results behind:

Row | IC50 (Gamma-secretase [1]) [nM] | clearance [2] [mL/min/kg] | IC50 (Gamma-secretase [3]) [nM] | SMILES | also measured
12 | 120 | 75.1 | 130 | CC(C)(O)C(=O)N1CCC(c2cc(F)ccc2F)(S(=O)(=O)c2ccc(Cl)cc2)CC1 | 
13 | 40 |  | 40 | O=C(N1CC[C@](c2cc(F)ccc2F)(S(=O)(=O)c2ccc(Cl)cc2)[C@H](O)C1)C1(C(F)(F)F)CC1 (racemic) | inhibition in vivo at 100 mg/kg (Mus musculus): 76%; Ratio [4]: 1.2; AUC [5]: 3.51 µM·h; Papp [6]: 31.1 ×10⁻⁶ cm/s; Vd [7]: 1.65 L; concentration at 6 h [8]: 11100 nM; solubility [9]: 174 µM (≈ 91.1 µg/mL); logD [10]: 3.27; concentration at 6 h [11]: 7060 nM; half-life [12]: 1.6 h
14 | 80 | > 84 | 270 | COc1ccc2c(C(=O)N3CCC(c4cc(F)ccc4F)(S(=O)(=O)c4ccc(Cl)cc4)CC3)c[nH]c2c1 | 
15 | 90 |  | 90 | O=C(N1CC[C@](c2cc(F)ccc2F)(S(=O)(=O)c2ccc(Cl)cc2)[C@@H](O)C1)C1(C(F)(F)F)CC1 (single isomer, unassigned; 11b) | 
16 | 30 |  | 30 | O=C(N1CCC(c2cc(F)ccc2F)(S(=O)(=O)c2ccc(Cl)cc2)CC1)C1(C(F)(F)F)CC1 | inhibition in vivo at 100 mg/kg (Mus musculus): 37%; Ratio [4]: 0.9; AUC (Rattus norvegicus): 1.19 µM·h; Papp [6]: 37.3 ×10⁻⁶ cm/s; Vd [7]: 3.1 L; concentration at 6 h [8]: 650 nM; solubility [9]: 26.8 µM (≈ 13.6 µg/mL); logD [10]: 3.76; concentration at 6 h [11]: 1180 nM; half-life [12]: 3.5 h
17 | 50 | 80.5 | 70 | O=C(c1ncccc1C(F)(F)F)N1CCC(c2cc(F)ccc2F)(S(=O)(=O)c2ccc(Cl)cc2)CC1 | 
18 | 60 | 46.2 | 70 | O=C(N1CCC(c2cc(F)ccc2F)(S(=O)(=O)c2ccc(Cl)cc2)CC1)C1(C(F)(F)F)CCC1 | 
19 | 110 | > 84 | 130 | O=C(c1cnccc1C(F)(F)F)N1CCC(c2cc(F)ccc2F)(S(=O)(=O)c2ccc(Cl)cc2)CC1 | 
20 | 90 | > 84 | 80 | O=C(CC(F)(F)F)N1CCC(c2cc(F)ccc2F)(S(=O)(=O)c2ccc(Cl)cc2)CC1 | 
21 | 110 | > 84 | 140 | O=C(N1CCC(c2cc(F)ccc2F)(S(=O)(=O)c2ccc(Cl)cc2)CC1)C1(C(F)(F)F)CCCC1 | 
22 | 80 |  | 110 | O=C(N1CC[C@](c2cc(F)ccc2F)(S(=O)(=O)c2ccc(Cl)cc2)[C@H](O)C1)C1(C(F)(F)F)CC1 (single isomer, unassigned; 12b) | 
23 | 50 | > 84 | 100 | COC(=O)C1(C(=O)N2CCC(c3cc(F)ccc3F)(S(=O)(=O)c3ccc(Cl)cc3)CC2)CC1 | 
24 | 50 | > 84 | 70 | CC1(C(=O)N2CCC(c3cc(F)ccc3F)(S(=O)(=O)c3ccc(Cl)cc3)CC2)CC1 | 
25 | 10 | 5.7 | 10 | O=C(N1CC[C@](c2cc(F)ccc2F)(S(=O)(=O)c2ccc(Cl)cc2)[C@H](O)C1)C1(C(F)(F)F)CC1 (single isomer, unassigned; 12c) | 
26 | 70 | > 84 | 90 | COc1ccc2c(C(=O)N3CCC(c4cc(F)ccc4F)(S(=O)(=O)c4ccc(Cl)cc4)CC3)cn(C)c2c1 | 
